The values below come from ChEMBL document CHEMBL1201862, “PubChem BioAssay data set” (2004).

Test systems include HCT-15; HL-60; MDA-MB-231; SK-OV-3; PC-3; A498; MCF7; K562; TK-10; Hs-578T; SK-MEL-5; MOLT-4; COLO 205; LOX IMVI; RPMI-8226; OVCAR-8; CAKI-1; HOP-92; SNB-75; UACC-257.
Holding throughout (assay): DTP human tumour cell line panel, 48 h

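Five concentrations, 48 hours, 96-well plates. Here, GI50 denotes the concentration required for 50% inhibition of growth.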 Active and inactive are the calls of the source. Rule as the data show it: active = GI50 up to about 1.1 µM and inactive = higher.

Regarding `CO[C@H]1C[C@H](O[C@H]2CC[C@]3(C=O)[C@H]4CC[C@]5(C)[C@@H](C6=CC(=O)OC6)CC[C@]5(O)[C@@H]4CC[C@]3(O)C2)O[C@H](C)[C@H]1O[C@@H]1O[C@H](CO[C@@H]2O[C@H](CO)[C@@H](O)[C@H](O)[C@H]2O)[C@@H](O)[C@H](O)[C@H]1O`, the GI50 is 40.5 nM with HCT-15; 36.1 nM (active) with HL-60; 355 nM (active) in the experiment with MDA-MB-231; 54.3 nM (active) with SK-OV-3; 38 nM (active) in the experiment on PC-3; 89.1 nM (active) with A498. The GI50 was 54.6 nM (active) in the experiment on MCF7; 85.7 nM (active) in the experiment with K562; 27.9 nM (active) in the experiment with TK-10; 27.8 nM (active) with Hs-578T; 37 nM (active) in the experiment on SK-MEL-5; 21.5 nM (active) with MOLT-4. The GI50 in the experiment with COLO 205 was 103 nM (active); with LOX IMVI it was 37.3 nM (active); in the experiment on RPMI-8226, 139 nM (active); in the experiment on OVCAR-8, 43.4 nM (active); in the experiment on CAKI-1 it was 22.3 nM (active); in the experiment on HOP-92, 84.5 nM (active). Moreover, the GI50 was 110 nM (active) in the experiment on SNB-75 and 239 nM (active) in the experiment with UACC-257.
